In paper PMC10242655, “Syringin inhibits endogenous volume regulated anion channel currents of HEK293 cells in hypotonic circumstances” (Pharmacology Research & Perspectives, 2023):

Molecular target: T1, VRAC (LRRC8A) (Homo sapiens, UniProt Q8IWT6)
T1 construct: endogenous VRAC channels of wild-type HEK293 cells; with at least one other LRRC8 subunit (LRRC8B-E; composition not determined)
T1 sequence (Q8IWT6 1-810): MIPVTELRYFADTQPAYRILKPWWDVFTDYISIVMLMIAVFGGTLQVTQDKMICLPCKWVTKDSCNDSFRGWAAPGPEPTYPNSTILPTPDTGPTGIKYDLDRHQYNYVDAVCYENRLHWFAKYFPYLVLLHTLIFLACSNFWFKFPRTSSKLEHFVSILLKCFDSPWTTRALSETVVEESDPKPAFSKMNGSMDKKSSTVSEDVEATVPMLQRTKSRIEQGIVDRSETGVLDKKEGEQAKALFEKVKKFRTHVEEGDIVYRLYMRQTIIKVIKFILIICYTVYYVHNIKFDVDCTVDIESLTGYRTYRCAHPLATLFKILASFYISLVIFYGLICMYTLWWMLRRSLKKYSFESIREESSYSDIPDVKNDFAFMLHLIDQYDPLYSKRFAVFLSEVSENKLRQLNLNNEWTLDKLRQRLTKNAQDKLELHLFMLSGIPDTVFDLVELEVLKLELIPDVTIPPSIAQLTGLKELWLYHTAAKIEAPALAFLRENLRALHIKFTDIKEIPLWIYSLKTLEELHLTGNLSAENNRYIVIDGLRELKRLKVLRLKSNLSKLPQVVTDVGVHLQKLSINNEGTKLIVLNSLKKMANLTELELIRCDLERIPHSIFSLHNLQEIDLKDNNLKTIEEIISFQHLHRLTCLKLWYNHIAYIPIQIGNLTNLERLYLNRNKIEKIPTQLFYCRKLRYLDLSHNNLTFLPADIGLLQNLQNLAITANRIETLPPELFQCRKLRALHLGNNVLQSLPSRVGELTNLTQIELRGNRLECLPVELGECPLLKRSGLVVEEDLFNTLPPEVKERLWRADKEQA
Experiment: whole-cell patch clamp of hypotonicity-induced VRAC currents in HEK293; I/I0 […] at […]
Format: cell-based

COc1cc(/C=C/CO)cc(OC)c1O[C@@H]1O[C@H](CO)[C@@H](O)[C@H](O)[C@H]1O [Syringin, 4‐[(1E)‐3‐hydroxyprop‐1‐en‐1‐yl]‐2,6‐dimethoxyphenyl β‐D‐glucopyranoside]
whole-cell patch clamp of hypotonicity-induced VRAC currents in HEK293; I/I0 0.6: I/I0 0.61 ± 0.02 at 100 μM
